Laboratory results reported in the RepoRT retention time repository.

assay: Waters ACQUITY UPLC BEH C18, 100 × 2.1 mm, 1.7 µm, 40 °C, 0.3 to 0.4 mL/min, estimated dead time 0.63 min; A: water + 0.1% formic acid; B: methanol + 0.1% formic acid; gradient (min/%B) 0/0.5 0.1/0.5 10/80 10.1/99.5 12/99.5; conditions: stereoisomer not certain

| LC retention time [min] | Structure (SMILES) |
| --- | --- |
| 4.24 | COc1cc(C=CC(=O)O)ccc1O |
| 5.26 | OCC(Cc1cccc(O)c1)C(CO)Cc1cccc(O)c1 (stereo not given) |
| 5.06 | O=C(C=Cc1ccc(O)cc1)NCCc1ccc(O)cc1 |
| 7.77 | CN1c2ccccc2C(=O)N2CCc3c([nH]c4ccccc34)C21 (stereo not given) |
| 9.1 | CCC=CCC=CC=CC(O)CCCCCCCC(=O)O (stereo not given) |
| 3.84 | COc1cc(CC(=O)O)ccc1O |
| 4.67 | CC1OC(Oc2c(-c3ccc(O)c(O)c3)oc3cc(O)cc(O)c3c2=O)C(OC2OC(COC(=O)C=Cc3ccc(O)cc3)C(O)C(O)C2O)C(O)C1O (stereo not given) |
| 3.72 | C=CC1C(OC2OC(CO)C(O)C(O)C2O)OC=C(C(=O)O)C1Cc1nccc2c1[nH]c1ccccc12 (stereo not given) |

Further lines, the compound ahead of its results:

| Structure (SMILES) | LC retention time [min] |
| --- | --- |
| CCN1CC2(COC)CCC(O)C34C5CC6C(OC)CC(O)(C(CC23)C14)C5C6O (stereo not given) | 2.91 |
| COC(=O)C1=COC(OC2OC(CO)C(O)C(O)C2O)C2C1CC(O)C2C (stereo not given) | 3.36 |
| CCC1C2CCN3CCC4(C(=C2C(=O)OC)Nc2ccccc24)C13 (stereo not given) | 4.92 |
| C=CC12CN(C)C3CC14C(=Nc1ccccc14)C1CC2C3CO1 (stereo not given) | 3.58 |
| CC1CCC2C(C)C3C(CC4C5CC=C6CC(OC7OC(CO)C(OC8OC(C)C(O)C(O)C8O)C(O)C7OC7OC(C)C(O)C(O)C7O)CCC6(C)C5CCC43C)N2C1 (stereo not given) | 5.01 |
| NCCc1ccc(O)cc1 | 1.83 |
| CCCCCC(=O)OC1C(OC2(CO)OC(CO)C(OC(C)=O)C2O)OC(CO)C(OC(=O)CCCC)C1OC(=O)CCCCC (stereo not given) | 9.49 |
